Literature values in patent EP0620000A2, “Cosmetic or pharmaceutical use of N-acylalcanolamines” (RHONE-POULENC RORER GMBH, priority 1992, dated 1994).

Conditions: orale Anwendung; tierexperimentelle Prüfungen; DE 27 56 866 A1

## N-Oleyl-Phosphatidylethanolaminen
  antiarteriosklerotische bzw. antilipämische Wirkung: deutlich antiarteriosklerotische bzw. antilipämische Wirkung
